Experimental findings from PubChem BioAssay (NCI) are described below.

Some test systems named below: CCRF-CEM leukemia; COLO 205 colon; DU-145 prostate; EKVX NSCLC; HCC-2998 colon; HL-60(TB) leukemia; HS 578T breast; IGROV1 ovarian; KM12 colon; MALME-3M melanoma; MDA-MB-231 breast; MDA-N; NCI-H522 lung; OVCAR-5 ovarian; OVCAR-8 ovarian; SF-295 CNS; SK-MEL-5 melanoma; SR leukemia; T-47D breast; U251 CNS.
What all share (assay): NCI anticancer screen, dose series, 48 h

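Cultured in 96-well plates, cells were exposed to test compound for 48 hours across five concentrations. TGI: total growth inhibition.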

On to `C=CC1(c2ccc(Br)cc2)OCCCO1`, for which the TGI in the test on CCRF-CEM leukemia, in the test on COLO 205 colon, with DU-145 prostate, in the test with EKVX NSCLC, in the test on HCC-2998 colon and with HL-60(TB) leukemia was > 100 µM throughout. For the same compound, the TGI in the test with HS 578T breast, in the test with IGROV1 ovarian, in the test on KM12 colon, with MALME-3M melanoma, in the test on MDA-MB-231 breast and in the test with MDA-N was > 100 µM in each case. In addition, the TGI in the test with NCI-H522 lung, with OVCAR-5 ovarian, in the test with OVCAR-8 ovarian, in the test with SF-295 CNS, in the test on SK-MEL-5 melanoma and with SR leukemia was > 100 µM throughout. Moreover, the TGI in the test with T-47D breast and in the test with U251 CNS was > 100 µM throughout.

For `O=Cc1ccc2c(c1)CC1(C2)Cc2ccc(C=O)cc2C1`, the TGI with CCRF-CEM leukemia is 5.9 µM; with COLO 205 colon, 70.9 µM; in the test on DU-145 prostate, > 100 µM; with EKVX NSCLC it was > 100 µM; in the test with HCC-2998 colon, > 91.8 µM; in the test on HL-60(TB) leukemia, 5.72 µM. Besides, the TGI with HS 578T breast is 28.7 µM; with IGROV1 ovarian it was 54.5 µM; with KM12 colon it was 60.4 µM; in the test on MALME-3M melanoma it was 46.1 µM; in the test on MDA-MB-231 breast, 34.1 µM; in the test with MDA-N, 5.99 µM. Further, the TGI was 54.9 µM in the test on NCI-H522 lung; > 100 µM in the test on OVCAR-5 ovarian; 31.3 µM in the test on OVCAR-8 ovarian; > 70.4 µM in the test on SF-295 CNS; 16.7 µM with SK-MEL-5 melanoma; 6.77 µM in the test with SR leukemia. Further, the results for the TGI in the test on T-47D breast and in the test on U251 CNS were 71.8 µM and 41.7 µM, respectively.

In the case of `N#CC1=C(N2CCOCC2)CCC1`, the TGI in the test on CCRF-CEM leukemia, in the test on COLO 205 colon, with DU-145 prostate, with EKVX NSCLC, with HCC-2998 colon and in the test on HL-60(TB) leukemia was > 100 µM throughout. In addition, the TGI in the test with HS 578T breast, in the test on IGROV1 ovarian, with KM12 colon, with MALME-3M melanoma, with MDA-MB-231 breast and with MDA-N was > 100 µM in each case. Also, the TGI with NCI-H522 lung, in the test with OVCAR-5 ovarian, with OVCAR-8 ovarian, in the test with SF-295 CNS, in the test on SK-MEL-5 melanoma and in the test on SR leukemia was > 100 µM in each case. In addition, the TGI in the test with T-47D breast and with U251 CNS was > 100 µM in each case.

Take `O=C1c2cccnc2C(=O)c2c1nc1ccccc1c2-c1cncc(-c2c3c(nc4ccccc24)C(=O)c2cccnc2C3=O)c1`: the TGI was 2.08 µM with CCRF-CEM leukemia; 0.617 µM with COLO 205 colon; 0.565 µM in the test with DU-145 prostate; 1.73 µM with EKVX NSCLC; 1.47 µM in the test with HCC-2998 colon; 0.478 µM in the test on HL-60(TB) leukemia. For the same compound, the TGI was 2.27 µM with HS 578T breast; 0.286 µM in the test on IGROV1 ovarian; 2 µM in the test with KM12 colon; 1.52 µM in the test on MALME-3M melanoma; 0.928 µM in the test with MDA-MB-231 breast; 0.778 µM in the test with MDA-N. The TGI with NCI-H522 lung is 0.784 µM; with OVCAR-5 ovarian, 5.9 µM; in the test with OVCAR-8 ovarian it was 0.618 µM; in the test with SF-295 CNS, 1.62 µM; in the test on SK-MEL-5 melanoma it was 0.52 µM; in the test on SR leukemia, 0.0608 µM. In addition, the TGI with T-47D breast is 2.91 µM; with U251 CNS, 1.22 µM.

`NC(=O)NC(=O)c1ccc(NC(=O)CBr)cc1`: the TGI in the test with CCRF-CEM leukemia amounted to 0.376 µM; in the test with COLO 205 colon it was 2.99 µM; with DU-145 prostate, 6.92 µM; in the test with EKVX NSCLC, 5.41 µM; with HCC-2998 colon it was 25.5 µM; in the test with HL-60(TB) leukemia, 3.27 µM. Moreover, the TGI in the test on HS 578T breast was determined as 7.37 µM; with IGROV1 ovarian it was 4.78 µM; in the test on KM12 colon, 10.1 µM; with MALME-3M melanoma, 3.96 µM; in the test with MDA-MB-231 breast, 6.48 µM; in the test on MDA-N, 5 µM. Besides, the TGI came out at 0.277 µM in the test on NCI-H522 lung; 7.34 µM in the test with OVCAR-5 ovarian; 8.38 µM in the test with OVCAR-8 ovarian; 27.3 µM with SF-295 CNS; 3.23 µM in the test on SK-MEL-5 melanoma; 1.01 µM with SR leukemia. The TGI with T-47D breast turned out to be 4.01 µM; in the test with U251 CNS, 2.25 µM.

Turning to `Nc1c(Cl)c([N+](=O)[O-])cc2c1OCCCCO2`, the TGI with CCRF-CEM leukemia, with COLO 205 colon, in the test with DU-145 prostate, in the test with EKVX NSCLC, with HCC-2998 colon and with HL-60(TB) leukemia was > 100 µM in each case. The TGI in the test with HS 578T breast, in the test on IGROV1 ovarian, in the test on KM12 colon, in the test with MALME-3M melanoma, with MDA-MB-231 breast and with MDA-N was > 100 µM in each case. The TGI is 5.28 µM in the test on NCI-H522 lung; > 100 µM with OVCAR-5 ovarian; > 100 µM in the test with OVCAR-8 ovarian; > 100 µM with SF-295 CNS; > 100 µM with SK-MEL-5 melanoma; > 100 µM in the test on SR leukemia. The TGI was > 100 µM with T-47D breast and 8.48 µM with U251 CNS.
